# Assay results taken from a melting point compilation (Tetko et al.; mined from patent text by program, amines drawn as free bases though some values may be those of a salt).
row,Structure (SMILES),melting point [°C]
1,Cc1ccc(Cn2nc(-c3cc(C(C)(C)C)c(O)c(C(C)(C)C)c3)c3cccnc32)cc1,134 to 135
2,CCCCNC(=O)c1nc2cnn(CC)c2nc1-c1ccccc1,127 to 128
3,CCc1ccc(C(O)COc2ccc(C=O)cc2)nc1 (configuration not stated),80
4,CS(=O)(=O)c1ccc(-c2cnn(-c3ccc(F)cc3)c(=O)c2OCC2CC2)cc1,166 to 167
5,CSC(c1ccc(Cl)cc1)c1ccc(Cl)cc1,56 to 57
6,CC1(C(=O)N2C[C@@H]3C[C@H]2C(=O)O3)CC1,101 to 102
7,COC(=O)NN=Cc1ccc(Oc2ccc(F)cc2)cc1,109 to 111
8,OCC1OC(n2c(S)nc3c(NCc4ccccc4)ncnc32)C(O)C1O (configuration not stated),145 to 148
9,Cc1nc(N2CCc3ccccc3CC2)c(C#N)c(=O)n1CCN(C)C,134 to 139
10,S=c1[nH]ccn1C1CCc2ccccc21 (configuration not stated),136 to 137
11,C#CC1(O)CCC2(C)C(CCC3C2CCC2(C)C(OC)CCC32)C1 (configuration not stated),62 to 65
12,O=C1CCCc2nc(N3CCNCC3)ncc2N1,175 to 178
13,CCOC(=O)c1ccc(NCCCCCCCc2ccccc2)cc1,65 to 67
14,Oc1nc(Cl)nc(NN=Cc2cc(C(F)(F)F)cc(C(F)(F)F)c2)n1,258
15,C#CCc1c(O)nc(C)nc1O,> 300
16,O=C(O)Cn1cnc2c(NC3CCCCC3)nc(NCc3ccc(C4CCCCC4)cc3)nc21,172 to 179
17,O=C(OCc1ccccc1)C1CSC2C(N=Cc3ccc([N+](=O)[O-])cc3)C(=O)N12 (configuration not stated),95 to 96
18,O=C1c2ccccc2CCN1O,95 to 96
19,Oc1ccc2cc(-c3cnc(-c4cn(Cc5ccccc5)c5ccccc45)o3)ccc2c1,242 to 244
20,CC(C)c1nc(-c2ccccc2)n(-c2ccc(F)cc2)c1C=C(Br)Br,164 to 165
21,CN1C(=O)C(c2ccc(OC(F)F)cc2)(c2cccc(C3CC(O)C3)c2)N=C1N (configuration not stated),186 to 190
22,O=C(O)CCn1cc(Cc2cccnc2)c2cc(NS(=O)(=O)c3ccc(F)cc3)ccc21,214 to 215
23,CC(=O)NC[C@H]1CN2C(=O)C[C@@H]2O1,82.5 to 84.5

row,Structure (SMILES),melting point [°C]
1,CCOc1nsc(NC(=O)NC)c1C#N,244
2,Nc1ccc2ncc(Br)cc2c1,151 to 152
3,Cn1cnc(COc2nc3c(cc2-c2cccc(F)c2)nnn3-c2ccccc2F)n1,202 to 205
4,CC(Oc1ccc(Br)cc1)(C(=O)O)c1ccccc1 (configuration not stated),88 to 89
5,CC1(C)Oc2cccnc2C2OC21 (configuration not stated),65 to 67
6,COc1ccc(N2CCN(C3CCNCC3)C2=O)cc1,140
7,O=C1N[C@@H](C(=O)N2C[C@H](O)C[C@H]2C(=O)O)CCCCCC[C@@H]1CS,128 to 130
8,Nc1nc2ccccc2c2c1ncn2CCCC(=O)c1ccccc1,209 to 211
9,CC1(C)OC(=O)Nc2ccc(-c3cccc(C#C[Si](C)(C)C)c3)cc21,240 to 242
10,COc1ccc(Cc2nc3n(c2-c2ccccc2)CCS3)cc1,273 to 274
11,CSc1nccc(-c2cccc(C(F)(F)F)c2)n1,89 to 90
12,COc1ccc2cc(-c3cc(=O)oc4cc(O)ccc34)ccc2c1,223 to 225
13,CN1CCOC(CN2C(=O)C3(COc4cc5c(cc43)OCCO5)c3ccccc32)C1 (configuration not stated),85 to 90
14,CC(=O)N1CCCC(=O)c2cc(Cl)c(Cl)cc2CCC1=O,163 to 165
15,Cc1cccc(-c2nc3cccnn3c2-c2ccnc(NC(=O)N3CCc4ccccc4C3)c2)c1,122 to 124
16,O=C1NC2CCC1NC2=O,275 to 277
17,Cc1ccc(-c2cc[nH]c2C=O)cc1,149 to 150
18,COc1ccc(S(=O)(=O)n2ccc3ccnc(-c4cccs4)c32)cc1,112 to 114
19,Cn1cncc1C(O)(c1ccc2c(c1)c(-c1cccc(Cl)c1)cc(=O)n2C)c1nccn1C (configuration not stated),130
20,CC(C)[C@H](NC(=O)CCC(=O)c1ccc(F)cc1)C(=O)O,103 to 105
21,"O=C(NC(CS)Cc1ccccc1)N1CCN(c2cccc(C(F)(F)F)c2)CC1 (single isomer, unassigned; (+))",130 to 132
22,Nc1nc(N)c(-c2ccc(Cl)cc2Cl)c(COCc2ccccc2)n1,171 to 172
23,CC(C)(C)OC(=O)N[C@H](Cc1ccccc1)C(=O)N1CCC[C@H]1C(=O)NC1CCc2n[nH]cc2C1 (some centres not stated),108 to 110

row,Structure (SMILES),melting point [°C]
1,Oc1cccc(C(O)(c2nccs2)C(F)(F)F)c1 (configuration not stated),94 to 96
2,NC(=S)Nc1ccc(C(F)(F)F)cn1,203 to 205
3,CC(C)(C)OC(=O)NCCCCC1C(=O)OC(C)(C)OC1=O,112 to 113
4,COC(=O)[C@@H]1C[C@H](O)C(=O)[C@@H]2[C@@]3(C)C[C@@H](c4ccoc4)OC(=O)[C@H]3CC[C@]21C,211 to 214
5,Cc1cc(C(=S)N(C)C)ncc1C(c1cc(F)ccc1F)S(=O)(=O)c1ccc(F)cc1 (configuration not stated),161 to 164
6,O=C(Nc1ccc(CCc2ccc(O)c(O)c2)cc1)C(=O)C1=C(O)c2ccccc2SC1,166 to 167
7,O=[N+]([O-])c1ccc(Sc2ccccc2)c(CCl)c1,58 to 60
8,O=C(COc1cc(-c2ccc([N+](=O)[O-])cc2)nc2cccc(C(F)(F)F)c12)N1CCOCC1,222
9,CSc1ccc(C(=O)Nc2ccccc2)cc1N,143 to 145
10,Nc1nc(OCCC2CCCCC2)nc2c1ncn2C1OC(CO)C(O)C1O (configuration not stated),105 to 112
11,COC(=O)c1ccc(N(C)C)cn1,100 to 103
12,O=C(O)c1ccc(-c2ccc(Cl)cc2)cn1,> 260
13,CC1(C)COCC(=O)N1NCc1ccccc1,76 to 77
14,O=C(O)c1ccc(-c2nc(-c3ccc(Cl)s3)cs2)cc1,283 to 284
15,CC(C)=CCC(C(=O)O)C(=O)O,96 to 97
16,CN(C)CCC(=O)OC1c2ccccc2C(=O)N1c1ccc2ccc(Cl)nc2n1 (configuration not stated),150
17,O=C(CCCC1CCCCC1)N[C@H]1CO[C@H]2[C@@H]1OC[C@@H]2NC(=O)C1CC1,182
18,Cn1c(C(F)(F)F)cc(=O)n(-c2c(F)cc(Cl)c3ccoc23)c1=O,127 to 128
19,CC(=O)COc1c(-c2ccccc2)c(=O)[nH]c2cc(Cl)ccc12,185 to 186
20,O=c1nc(NCN2CCOCC2)c(F)cn1CN1CCOCC1,156 to 158
21,"CCCC(N)(CO)CCCc1ccc(Sc2cccc(OCc3ccccc3)c2)cc1Cl (single isomer, unassigned; (+))",55 to 57
22,Cc1cc(O)c2c(c1)C(C)(C)CCC2(C)C,133 to 134

# Second part, the molecule after the results:
row,melting point [°C],Structure (SMILES)
1,170 to 173,CCOC(=O)c1ccc(C(Cc2ccncc2)c2ccc(OC)c(OC3CCCC3)c2)cc1 (configuration not stated)
2,109 to 110,COc1ccc(C(=O)O)c(OC(C)C)c1Br
3,177 to 180,COc1ccc2cc(CC(=O)NO)ccc2c1
4,> 250,Cc1cc2c(NCc3ccc4c(c3)OCO4)nc(-c3ccc(C(=O)O)cc3)nc2s1
5,114 to 116,C=CCNC(=O)n1nc(-c2ccccc2)cc1NC(=O)CC(=O)C(F)(F)F
6,43 to 44,C=CCc1cc(C=C(C(=O)OCC)C(=O)OCC)cc(OC)c1OC
7,180,CCOP(=O)(Cc1ccc(C(=S)Nc2nc3c(s2)Cc2c(Cl)cccc2-3)cc1)OCC
8,165 to 167,CN1CCc2cc(C#CCO)cc3c(=O)c(C(=O)NCc4ccc(Cl)cc4)cn1c23
9,189,O=C(O)c1ccc(NCc2cccc([N+](=O)[O-])c2)cc1O
10,113 to 114,COc1ccc(CCNC(=O)N(O)C(C)C)cc1OC
11,184 to 185,COC1OCC[C@@H]1NC(=O)[C@H](CC(C)C)NC(=O)Nc1cccc2ccccc12 (some centres not stated)
12,252 to 254,CCNC(=O)c1cnc(SC)nc1Nc1ccc2[nH]ncc2c1
13,52 to 53,C=CCOc1cc(NC(=O)C2CCCCC2C(=O)OCC)c(F)cc1Cl (configuration not stated)
14,214 to 215,Cc1c(C(=O)O)ccc(S(C)(=O)=O)c1-c1ccc(S(C)(=O)=O)cc1
15,83 to 84,CCn1c(=O)n(CCC(C)C(C)=O)c(=O)c2c1ncn2CCOC (configuration not stated)
16,210,CC1Cc2cc(S(=O)(=O)N3CCN(c4cccc(Cl)c4)CC3)ccc2N1C(=O)CCC(=O)O (configuration not stated)
17,101 to 102,C=C(C)C(=O)Oc1ccc(CNS(C)(=O)=O)cc1

row,melting point [°C],Structure (SMILES)
1,138 to 140,CC[C@H](C1CC1)n1cc(Cl)nc(N2CCc3cc(OC)cc(Br)c32)c1=O
2,141,CCOC(=O)C1=C(C)NN=C(CC)C1c1ccc([N+](=O)[O-])cc1 (configuration not stated)
3,130 to 132,COc1cc2c(cc1Cl)C(Cl)Cc1ccccc1S2 (configuration not stated)
4,72 to 75,CCOC(=O)C1=C(C)NC(C)=C(C(=O)OCCN2CCN(C(c3ccccc3)c3ccccc3)CC2)C1c1cccc(Cl)c1 (configuration not stated)
5,175 to 179,CCOCc1nc2c(N)nc3ccccc3c2n1CCCCCS(=O)(=O)NC
6,115 to 117,CCOC(=O)c1c(S(=O)(=O)c2ccc(C)cc2)nc(-c2ccccc2)c([N+](=O)[O-])c1C(=O)OCC
7,135 to 136,COC(=O)c1ccc(Cn2nc(C(C)(C)C)cc2C(C)(C)C)cc1
8,127 to 128,COc1ccc(Oc2ccc(Cl)cc2[N+](=O)[O-])c(C=O)c1
9,242 to 243,CNC(=O)c1cc(C#N)cc(C)c1NC(=O)c1cc(Br)nn1-c1ccccc1Cl
10,> 270,CCCn1c(=O)c2c(nc(C=Cc3ccc(S(=O)(=O)O)cc3)n2C)n(CCC)c1=O
11,76.7,COC(=O)c1cc(C=O)ccc1[N+](=O)[O-]
12,305 to 307,Cc1ccc(CNc2cccc(C(=O)O)c2C(=O)O)o1
13,172 to 173,COc1ccc(C(=O)n2c3c(c4cc(C)ccc42)CC(C(=O)O)CC3)cc1 (configuration not stated)
14,211 to 212,CCc1[nH]c2ccc(OC)cc2c1C=O
15,189 to 191,CC(C)(C)c1cc(-c2noc(=O)[nH]2)cc(C(C)(C)C)c1O
16,137 to 139,COC(=O)CCc1nc(CCc2ccc(C(=O)OC)cc2)ccc1O
17,163 to 165,CCCc1ccccc1OCCCOc1ccc2c(c1CCC)OC(CCC(=O)O)(CCC(=O)O)CC2=O
